These results are taken from BindingDB's records for doi:10.1016/j.bmcl.2007.07.104 (Glaxosmithkline, 2007).

This assay deals with Proto-oncogene tyrosine-protein kinase receptor Ret (Homo sapiens, UniProt P07949). Description: RET Kinase Inhibition Assay. The note with it: pH 7.4; 22 °C.
Sequence of Proto-oncogene tyrosine-protein kinase receptor Ret (P07949 whole entry): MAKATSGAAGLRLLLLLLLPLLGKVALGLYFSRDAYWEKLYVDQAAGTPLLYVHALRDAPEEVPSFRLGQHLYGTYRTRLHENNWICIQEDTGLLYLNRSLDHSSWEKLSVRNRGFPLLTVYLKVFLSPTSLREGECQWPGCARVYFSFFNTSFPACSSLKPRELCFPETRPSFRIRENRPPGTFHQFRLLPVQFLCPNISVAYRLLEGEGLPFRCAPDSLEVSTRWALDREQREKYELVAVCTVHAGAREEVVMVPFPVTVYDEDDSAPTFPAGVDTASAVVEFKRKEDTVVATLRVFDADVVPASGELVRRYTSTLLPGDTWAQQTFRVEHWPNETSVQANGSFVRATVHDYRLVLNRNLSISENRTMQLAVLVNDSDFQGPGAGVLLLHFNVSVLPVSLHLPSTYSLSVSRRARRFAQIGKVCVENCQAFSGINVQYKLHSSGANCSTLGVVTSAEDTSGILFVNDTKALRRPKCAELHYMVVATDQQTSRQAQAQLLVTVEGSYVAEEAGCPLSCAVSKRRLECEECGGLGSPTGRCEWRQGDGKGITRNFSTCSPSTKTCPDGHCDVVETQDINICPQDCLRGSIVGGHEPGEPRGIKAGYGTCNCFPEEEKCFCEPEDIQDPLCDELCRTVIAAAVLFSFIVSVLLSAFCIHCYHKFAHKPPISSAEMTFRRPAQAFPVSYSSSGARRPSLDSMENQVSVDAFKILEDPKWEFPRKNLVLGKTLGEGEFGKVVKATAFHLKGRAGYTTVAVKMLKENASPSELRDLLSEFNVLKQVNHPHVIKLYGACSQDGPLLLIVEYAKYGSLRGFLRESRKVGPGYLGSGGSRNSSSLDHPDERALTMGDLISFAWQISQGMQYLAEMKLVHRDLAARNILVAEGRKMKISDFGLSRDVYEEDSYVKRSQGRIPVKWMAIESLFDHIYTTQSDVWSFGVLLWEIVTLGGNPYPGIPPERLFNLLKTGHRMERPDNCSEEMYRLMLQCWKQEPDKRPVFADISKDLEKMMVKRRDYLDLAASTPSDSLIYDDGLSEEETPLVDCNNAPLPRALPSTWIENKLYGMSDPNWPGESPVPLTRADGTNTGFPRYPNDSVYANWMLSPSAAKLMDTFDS

The molecule `Cc1ccc(O)cc1Nc1cc(C(F)(F)F)nc2ccc(-c3ccncc3)cc12` [4-methyl-3-{[6-(pyridin-4-yl)-2-(trifluoromethyl)quinolin-4-yl]amino}phenol] had an IC50 above 1000 nM.
